Laboratory results as given in ChEMBL document CHEMBL4610129, “Discovery of Novel Selective and Orally Bioavailable Phosphodiesterase-1 Inhibitors for the Efficient Treatment of Idiopathic Pulmonary Fibrosis” (J Med Chem, 2020).
≈ marks a conversion by molar mass, not a printed value. Calls of active or inactive are those of the source. The calls are words filed in the database; no cut-off is given here.

What was measured:
[1] = species on record: Homo sapiens; assay: Anti-pulmonary fibrosis activity in human HLF assessed as reduction in TGF-beta-induced myofibroblast differentiation by measuring reduction in alpha-SMA protein expression incubated for 48 hrs by Western blot analysis; assay type: functional
[2] = biological target: Cone cGMP-specific 3',5'-cyclic phosphodiesterase subunit alpha' (Homo sapiens, UniProt P51160); assay: Inhibition of PDE6C (1 to 858 residues) (unknown origin) using [3H]-cGMP substrate incubated for 15 mins by liquid scintillation counting method relative to control
[3] = biological target: Cytochrome P450 2D6 (Homo sapiens, UniProt P10635); assay: Inhibition of human CYP2D6; assay type: ADME
[4] = Oral bioavailability in Sprague-Dawley rat at 5 mg/kg; assay type: ADME, organism-based; details: in vivo
[5] = Unbound fraction in human plasma; assay type: ADME, cell-free
[6] = test system: Rattus norvegicus; assay: Anti-pulmonary fibrosis activity in Sprague-Dawley rat model of BLM-induced idiopathic pulmonary fibrosis assessed as reduction in end-expiratory pause at 10 mg/kg, po dosed daily for 28 days by mka noninvasive pulmonary monitoring system based method; assay type: functional, organism-based
[7] = AUC (0 to t) in Sprague-Dawley rat at 2.5 mg/kg, iv; assay type: ADME, organism-based; details: in vivo
[8] = Acute toxicity in mouse; assay type: organism-based; details: in vivo
[9] = test system: Rattus norvegicus; assay: Anti-pulmonary fibrosis activity in Sprague-Dawley rat model of BLM-induced idiopathic pulmonary fibrosis assessed as reduction in mid-expiratory flow at 10 mg/kg, po dosed daily for 28 days by mka noninvasive pulmonary monitoring system based method; assay type: functional, organism-based
[10] = species on record: Homo sapiens; assay: Anti-pulmonary fibrosis activity in human HLF assessed as reduction in TGF-beta-induced myofibroblast differentiation by measuring reduction in fibronectin protein expression incubated for 48 hrs by immunofluorescence staining analysis; assay type: functional
[11] = Tmax in Sprague-Dawley rat at 5 mg/kg, po; assay type: ADME, organism-based; details: in vivo
[12] = Cmax in Sprague-Dawley rat at 5 mg/kg, po; assay type: ADME, organism-based; design: dose 5 mg/kg, route oral; details: in vivo
[13] = biological target: Cytochrome P450 2C9 (Homo sapiens, UniProt P11712); assay: Inhibition of human CYP2C9; assay type: ADME
[14] = biological target: cGMP-dependent 3',5'-cyclic phosphodiesterase (Homo sapiens, UniProt O00408); assay: Inhibition of PDE2A (580 to 919 residues) (unknown origin) using [3H]-cGMP substrate incubated for 15 mins by liquid scintillation counting method relative to control
[15] = species on record: Homo sapiens; assay: Anti-pulmonary fibrosis activity in human HLF assessed as reduction in TGF-beta-induced myofibroblast differentiation by measuring reduction in fibronectin protein expression incubated for 48 hrs by Western blot analysis; assay type: functional
[16] = biological target: cGMP-specific 3',5'-cyclic phosphodiesterase (Homo sapiens, UniProt O76074); assay: Inhibition of PDE5A1 (535 to 860 residues) (unknown origin) using [3H]-cGMP substrate incubated for 15 mins by liquid scintillation counting method relative to control
[17] = biological target: cGMP-inhibited 3',5'-cyclic phosphodiesterase 3A (Homo sapiens, UniProt Q14432); assay: Inhibition of PDE3A (679 to 1087 residues) (unknown origin) using [3H]-cAMP substrate incubated for 15 mins by liquid scintillation counting method relative to control
[18] = Half life in Sprague-Dawley rat at 2.5 mg/kg, iv; assay type: ADME, organism-based; details: in vivo
[19] = Solubility in pH 6 solution by HPLC analysis; assay type: physicochemical
[20] = test system: Rattus norvegicus; assay: Anti-pulmonary fibrosis activity in Sprague-Dawley rat model of BLM-induced idiopathic pulmonary fibrosis assessed as inhibition of collagen deposition at 10 mg/kg, po dosed daily for 28 days by Masson staining based assay; assay type: functional, organism-based
[21] = MRT (0 to t) in Sprague-Dawley rat at 5 mg/kg, po; assay type: ADME, organism-based; details: in vivo
[22] = biological target: Voltage-gated inwardly rectifying potassium channel KCNH2 (Homo sapiens, UniProt Q12809); assay: Inhibition of human ERG
[23] = Half life in Sprague-Dawley rat at 5 mg/kg, po; assay type: ADME, organism-based; details: in vivo
[24] = test system: Rattus norvegicus; assay: Anti-pulmonary fibrosis activity in Sprague-Dawley rat model of BLM-induced idiopathic pulmonary fibrosis assessed as inhibition of alpha-SMA protein expression at 10 mg/kg, po dosed daily for 28 days by immunofluorescence staining analysis; assay type: functional, organism-based
[25] = Solubility in pH 7.3 solution by HPLC analysis; assay type: physicochemical
[26] = biological target: T1, Cytochrome P450 1A2 (Homo sapiens, UniProt P05177); assay: Inhibition of human CYP1A2; assay type: ADME
T1 sequence (P05177 whole entry): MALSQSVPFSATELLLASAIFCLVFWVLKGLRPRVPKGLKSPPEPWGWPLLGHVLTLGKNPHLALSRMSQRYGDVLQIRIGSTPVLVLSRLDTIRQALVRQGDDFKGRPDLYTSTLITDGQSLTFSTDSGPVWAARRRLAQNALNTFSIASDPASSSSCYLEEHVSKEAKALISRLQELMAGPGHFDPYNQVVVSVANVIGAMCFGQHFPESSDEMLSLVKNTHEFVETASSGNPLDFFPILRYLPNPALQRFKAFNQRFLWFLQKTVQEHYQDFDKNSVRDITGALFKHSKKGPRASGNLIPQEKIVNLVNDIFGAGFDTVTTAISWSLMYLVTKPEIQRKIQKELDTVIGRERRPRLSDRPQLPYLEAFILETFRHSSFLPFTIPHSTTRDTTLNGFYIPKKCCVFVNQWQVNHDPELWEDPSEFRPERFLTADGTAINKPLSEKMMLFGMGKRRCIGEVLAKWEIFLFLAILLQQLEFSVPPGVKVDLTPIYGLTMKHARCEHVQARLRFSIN

[27] = Half life in human liver microsomes; assay type: ADME, Microsome
[28] = test system: Rattus norvegicus; assay: Anti-pulmonary fibrosis activity in Sprague-Dawley rat model of BLM-induced idiopathic pulmonary fibrosis assessed as reduction in peak expiratory flow at 10 mg/kg, po dosed daily for 28 days by mka noninvasive pulmonary monitoring system based method; assay type: functional, organism-based
[29] = biological target: 3',5'-cyclic-AMP phosphodiesterase 4D (Homo sapiens, UniProt Q08499); assay: Inhibition of PDE4D2 (86 to 413 residues) (unknown origin) using [3H]-cAMP substrate incubated for 15 mins by liquid scintillation counting method relative to control
[30] = test system: Rattus norvegicus; assay: Anti-pulmonary fibrosis activity in Sprague-Dawley rat model of BLM-induced idiopathic pulmonary fibrosis assessed as reduction in lung structural damage at 10 mg/kg, po dosed daily for 28 days by H and E staining based assay; assay type: functional, organism-based
[31] = test system: Rattus norvegicus; assay: Anti-pulmonary fibrosis activity in Sprague-Dawley rat model of BLM-induced idiopathic pulmonary fibrosis assessed as inhibition of alpha-SMA protein expression at 10 mg/kg, po dosed daily for 28 days by Western blot analysis; assay type: functional, organism-based
[32] = AUC (0 to t) in Sprague-Dawley rat at 5 mg/kg, po; assay type: ADME, organism-based; details: in vivo
[33] = test system: Rattus norvegicus; assay: Anti-pulmonary fibrosis activity in Sprague-Dawley rat model of BLM-induced idiopathic pulmonary fibrosis assessed as reduction in end-inspiratory pause at 10 mg/kg, po dosed daily for 28 days by mka noninvasive pulmonary monitoring system based method; assay type: functional, organism-based
[34] = AUC (0 to infinity) in Sprague-Dawley rat at 5 mg/kg, po; assay type: ADME, organism-based; design: dose 5 mg/kg, time infinity, route oral; details: in vivo
[35] = test system: Rattus norvegicus; assay: Anti-pulmonary fibrosis activity in Sprague-Dawley rat model of BLM-induced idiopathic pulmonary fibrosis assessed as reduction in enhanced pause at 10 mg/kg, po dosed daily for 28 days by mka noninvasive pulmonary monitoring system based method; assay type: functional, organism-based

Chain of Voltage-gated inwardly rectifying potassium channel KCNH2 (Q12809 whole entry): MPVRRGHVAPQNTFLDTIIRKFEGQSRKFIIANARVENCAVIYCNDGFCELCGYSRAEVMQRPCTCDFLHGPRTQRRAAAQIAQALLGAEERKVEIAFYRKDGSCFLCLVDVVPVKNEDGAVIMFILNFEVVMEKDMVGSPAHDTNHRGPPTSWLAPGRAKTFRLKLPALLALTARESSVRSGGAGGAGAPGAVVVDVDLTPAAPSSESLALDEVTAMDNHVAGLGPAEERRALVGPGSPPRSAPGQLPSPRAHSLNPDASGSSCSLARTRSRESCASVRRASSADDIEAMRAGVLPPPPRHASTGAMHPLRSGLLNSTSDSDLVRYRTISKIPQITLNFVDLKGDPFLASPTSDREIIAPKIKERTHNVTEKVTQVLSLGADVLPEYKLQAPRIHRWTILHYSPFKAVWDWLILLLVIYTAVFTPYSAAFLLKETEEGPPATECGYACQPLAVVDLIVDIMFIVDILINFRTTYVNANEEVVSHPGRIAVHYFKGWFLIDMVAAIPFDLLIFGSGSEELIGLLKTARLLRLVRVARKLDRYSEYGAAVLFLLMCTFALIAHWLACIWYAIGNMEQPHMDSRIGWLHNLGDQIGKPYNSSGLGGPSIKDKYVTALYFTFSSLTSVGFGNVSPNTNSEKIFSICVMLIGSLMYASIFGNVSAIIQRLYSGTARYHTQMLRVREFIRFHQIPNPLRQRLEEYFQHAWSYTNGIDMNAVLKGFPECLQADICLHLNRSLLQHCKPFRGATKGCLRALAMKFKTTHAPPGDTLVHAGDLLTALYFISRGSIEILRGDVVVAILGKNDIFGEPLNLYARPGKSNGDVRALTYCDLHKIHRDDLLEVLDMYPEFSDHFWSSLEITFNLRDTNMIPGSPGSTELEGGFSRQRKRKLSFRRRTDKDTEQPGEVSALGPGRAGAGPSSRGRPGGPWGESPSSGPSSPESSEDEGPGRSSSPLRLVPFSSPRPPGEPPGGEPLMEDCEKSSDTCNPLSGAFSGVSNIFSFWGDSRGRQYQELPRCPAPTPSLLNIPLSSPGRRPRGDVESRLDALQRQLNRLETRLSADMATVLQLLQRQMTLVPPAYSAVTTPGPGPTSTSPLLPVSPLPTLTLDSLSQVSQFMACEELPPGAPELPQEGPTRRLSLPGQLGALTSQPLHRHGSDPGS
Chain of 3',5'-cyclic-AMP phosphodiesterase 4D (Q08499 whole entry, the tested form may be a part): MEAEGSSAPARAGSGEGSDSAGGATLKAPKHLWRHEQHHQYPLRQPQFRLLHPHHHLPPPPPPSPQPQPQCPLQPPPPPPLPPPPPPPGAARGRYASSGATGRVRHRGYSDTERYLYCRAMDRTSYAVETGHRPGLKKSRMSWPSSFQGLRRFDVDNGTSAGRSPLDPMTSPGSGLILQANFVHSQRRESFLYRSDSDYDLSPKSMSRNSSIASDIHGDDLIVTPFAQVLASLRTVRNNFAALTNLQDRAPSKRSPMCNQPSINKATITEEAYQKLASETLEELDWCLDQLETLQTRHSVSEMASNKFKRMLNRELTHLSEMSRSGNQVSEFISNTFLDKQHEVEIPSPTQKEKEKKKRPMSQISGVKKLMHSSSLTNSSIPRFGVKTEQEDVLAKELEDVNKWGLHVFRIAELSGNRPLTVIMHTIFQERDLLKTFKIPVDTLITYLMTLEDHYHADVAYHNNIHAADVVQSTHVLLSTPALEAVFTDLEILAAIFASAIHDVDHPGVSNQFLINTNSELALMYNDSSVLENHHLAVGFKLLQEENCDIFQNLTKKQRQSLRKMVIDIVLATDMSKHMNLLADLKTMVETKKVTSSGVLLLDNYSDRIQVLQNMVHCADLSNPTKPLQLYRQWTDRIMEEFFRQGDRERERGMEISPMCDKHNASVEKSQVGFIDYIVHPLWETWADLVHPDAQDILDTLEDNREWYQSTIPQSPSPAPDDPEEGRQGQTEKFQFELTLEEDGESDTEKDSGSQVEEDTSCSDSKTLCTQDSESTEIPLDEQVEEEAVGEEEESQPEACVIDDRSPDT
Chain of Cytochrome P450 2D6 (P10635 whole entry): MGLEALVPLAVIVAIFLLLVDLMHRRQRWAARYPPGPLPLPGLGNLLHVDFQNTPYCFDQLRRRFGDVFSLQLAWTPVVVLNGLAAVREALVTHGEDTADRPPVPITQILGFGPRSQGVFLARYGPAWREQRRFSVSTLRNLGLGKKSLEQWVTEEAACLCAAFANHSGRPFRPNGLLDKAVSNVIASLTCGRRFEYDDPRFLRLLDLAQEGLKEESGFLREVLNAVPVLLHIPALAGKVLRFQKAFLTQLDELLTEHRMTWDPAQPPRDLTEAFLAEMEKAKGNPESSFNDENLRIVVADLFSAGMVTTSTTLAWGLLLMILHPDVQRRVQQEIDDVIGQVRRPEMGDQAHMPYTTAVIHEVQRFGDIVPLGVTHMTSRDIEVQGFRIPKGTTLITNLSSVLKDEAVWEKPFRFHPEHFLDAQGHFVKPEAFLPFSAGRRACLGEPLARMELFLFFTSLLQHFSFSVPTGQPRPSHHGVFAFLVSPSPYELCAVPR
Chain of cGMP-dependent 3',5'-cyclic phosphodiesterase (O00408 whole entry, the tested form may be a part): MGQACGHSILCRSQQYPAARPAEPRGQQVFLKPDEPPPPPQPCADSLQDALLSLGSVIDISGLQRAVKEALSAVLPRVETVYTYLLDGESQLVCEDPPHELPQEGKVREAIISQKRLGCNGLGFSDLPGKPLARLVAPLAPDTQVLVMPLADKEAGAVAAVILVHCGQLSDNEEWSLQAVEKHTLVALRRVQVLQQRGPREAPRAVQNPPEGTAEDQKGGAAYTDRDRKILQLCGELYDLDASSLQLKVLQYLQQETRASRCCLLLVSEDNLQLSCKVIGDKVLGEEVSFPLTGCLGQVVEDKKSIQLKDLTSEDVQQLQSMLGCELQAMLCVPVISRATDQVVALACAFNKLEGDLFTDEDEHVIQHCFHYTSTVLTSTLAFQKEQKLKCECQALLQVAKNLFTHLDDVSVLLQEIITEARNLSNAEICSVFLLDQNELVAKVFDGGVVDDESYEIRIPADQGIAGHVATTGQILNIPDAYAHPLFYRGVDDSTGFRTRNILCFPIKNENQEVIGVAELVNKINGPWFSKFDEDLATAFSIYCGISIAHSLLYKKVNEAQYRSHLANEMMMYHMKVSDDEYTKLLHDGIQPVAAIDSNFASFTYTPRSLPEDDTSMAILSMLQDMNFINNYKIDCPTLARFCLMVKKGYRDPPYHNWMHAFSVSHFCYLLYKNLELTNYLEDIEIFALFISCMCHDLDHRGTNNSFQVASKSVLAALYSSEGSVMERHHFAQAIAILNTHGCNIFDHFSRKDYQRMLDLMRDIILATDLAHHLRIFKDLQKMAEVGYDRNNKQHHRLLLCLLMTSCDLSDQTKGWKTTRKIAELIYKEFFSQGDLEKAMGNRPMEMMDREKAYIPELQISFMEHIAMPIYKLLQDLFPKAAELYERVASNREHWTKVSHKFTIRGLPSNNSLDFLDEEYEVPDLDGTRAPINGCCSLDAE
Chain of Cone cGMP-specific 3',5'-cyclic phosphodiesterase subunit alpha' (P51160 whole entry, the tested form may be a part): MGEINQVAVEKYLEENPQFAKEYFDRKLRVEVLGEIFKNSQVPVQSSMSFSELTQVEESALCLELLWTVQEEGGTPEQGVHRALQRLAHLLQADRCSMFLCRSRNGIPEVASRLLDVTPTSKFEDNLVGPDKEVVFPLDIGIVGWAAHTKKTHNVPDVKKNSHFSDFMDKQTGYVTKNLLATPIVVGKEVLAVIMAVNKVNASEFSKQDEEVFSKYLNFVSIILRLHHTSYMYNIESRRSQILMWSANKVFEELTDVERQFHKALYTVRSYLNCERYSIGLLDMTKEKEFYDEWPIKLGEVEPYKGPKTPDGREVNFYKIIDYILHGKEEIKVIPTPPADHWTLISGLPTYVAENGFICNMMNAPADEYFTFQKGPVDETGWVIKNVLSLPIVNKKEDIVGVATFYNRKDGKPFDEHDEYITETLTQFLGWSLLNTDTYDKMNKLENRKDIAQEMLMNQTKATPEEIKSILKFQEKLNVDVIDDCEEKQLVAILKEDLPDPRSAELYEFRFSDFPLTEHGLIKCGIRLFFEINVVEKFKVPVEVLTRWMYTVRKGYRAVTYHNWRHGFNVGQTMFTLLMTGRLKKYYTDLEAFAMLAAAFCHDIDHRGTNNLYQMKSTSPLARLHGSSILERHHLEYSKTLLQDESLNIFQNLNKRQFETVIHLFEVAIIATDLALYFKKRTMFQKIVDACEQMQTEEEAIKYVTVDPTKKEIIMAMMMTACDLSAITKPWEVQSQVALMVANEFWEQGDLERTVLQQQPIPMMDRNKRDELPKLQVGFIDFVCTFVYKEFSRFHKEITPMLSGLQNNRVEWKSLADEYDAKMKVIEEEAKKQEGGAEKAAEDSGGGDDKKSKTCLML
Chain of Cytochrome P450 2C9 (P11712 whole entry, the tested form may be a part): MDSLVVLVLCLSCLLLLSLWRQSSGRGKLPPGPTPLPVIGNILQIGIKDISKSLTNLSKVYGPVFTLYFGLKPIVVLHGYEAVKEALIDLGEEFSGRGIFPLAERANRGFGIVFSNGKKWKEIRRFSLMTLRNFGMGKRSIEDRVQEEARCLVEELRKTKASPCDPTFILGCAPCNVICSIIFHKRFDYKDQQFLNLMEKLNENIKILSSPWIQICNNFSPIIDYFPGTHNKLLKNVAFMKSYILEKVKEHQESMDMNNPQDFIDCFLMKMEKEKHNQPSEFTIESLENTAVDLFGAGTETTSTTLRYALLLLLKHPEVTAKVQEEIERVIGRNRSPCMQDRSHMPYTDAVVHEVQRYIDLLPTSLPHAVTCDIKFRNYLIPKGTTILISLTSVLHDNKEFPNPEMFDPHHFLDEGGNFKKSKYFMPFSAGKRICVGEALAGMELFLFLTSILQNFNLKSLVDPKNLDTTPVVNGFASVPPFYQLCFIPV

Question: What does the source list for `C[C@@H](Nc1nc2c(cnn2C(C)(C)C)c(=O)n1Cc1ccc(F)cc1)c1ccc(Cl)cc1`?
Answer: Activity [1]: Dose-dependent effect; IC50 [2]: > 10 µM; IC50 [3]: > 25 µM; bioavailability [4]: 34%; Fu [5]: 0.1%; Activity [6]: Active; AUC(0-t) [7]: 1930 ng·h/mL; MTD [8]: > 1500 mg/kg; Activity [9]: Active; Activity [10]: Dose-dependent effect; Tmax [11]: 4 h; Cmax [12]: 169 ng/mL; IC50 [13]: 6.6 µM; IC50 [14]: > 10 µM; Activity [15]: Dose-dependent effect; IC50 [16]: 0.37 µM; IC50 [17]: > 10 µM; half-life [18]: 5.5 h; solubility [19]: 16 µg/mL (≈ 35.2 µM); Activity [20]: Active; MRT last [21]: 6.88 h; IC50 [22]: 11 µM; half-life [23]: 3.7 h; Activity [24]: Active; solubility [25]: 22 µg/mL (≈ 48.5 µM); IC50 [26]: > 25 µM; half-life [27]: 0.262 h; Activity [28]: Active; IC50 [29]: 0.699 µM; Activity [30]: Active; Activity [31]: Active; AUC(0-t) [32]: 1300 ng·h/mL; Activity [33]: Active; AUC(0-inf) [34]: 1320 ng·h/mL; Activity [35]: Active
